Measurements from PubChem BioAssay AID1745859.

Target: Equilibrative nucleoside transporter 1 (Homo sapiens) (UniProt Q99808)
Assay: PubChem AID 1745859
Conditions: U2OS JumpIn-ENT1 cells, TRACT impedance, adenosine response

Chain of Equilibrative nucleoside transporter 1 (Homo sapiens) (Q99808 whole entry, looked up): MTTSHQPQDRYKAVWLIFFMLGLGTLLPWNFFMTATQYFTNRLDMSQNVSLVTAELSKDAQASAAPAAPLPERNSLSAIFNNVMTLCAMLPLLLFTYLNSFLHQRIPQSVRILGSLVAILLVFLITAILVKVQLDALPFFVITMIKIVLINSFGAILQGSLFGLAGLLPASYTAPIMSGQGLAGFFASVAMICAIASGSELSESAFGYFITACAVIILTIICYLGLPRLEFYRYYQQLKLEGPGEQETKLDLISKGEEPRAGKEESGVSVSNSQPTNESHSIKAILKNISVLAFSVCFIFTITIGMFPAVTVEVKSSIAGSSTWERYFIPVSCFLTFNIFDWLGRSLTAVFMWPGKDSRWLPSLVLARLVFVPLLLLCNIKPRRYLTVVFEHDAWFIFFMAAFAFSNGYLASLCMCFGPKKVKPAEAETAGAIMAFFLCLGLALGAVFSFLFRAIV

NC(=O)C1CN(CCCCC(c2ccc(F)cc2)c2ccc(F)cc2)CCN1CC(=O)Nc1c(Cl)cc(N)cc1Cl (stereo unspecified)
IC50: 5.31 nM
